PubChem BioAssay (NCI)
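Each compound was tested at five concentrations against cells in 96-well plates for 48 hours. TGI: concentration producing complete growth inhibition.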

Experiments:
Assay in all cases: growth of human tumour cells (NCI), 48 h
OVCAR-5 ovarian = system: OVCAR-5 ovarian
A498 renal = system: A498 renal
MDA-MB-231 breast = system: MDA-MB-231 breast
SNB-75 CNS = system: SNB-75 CNS
MOLT-4 leukemia = system: MOLT-4 leukemia
SNB-19 CNS = system: SNB-19 CNS
SN12C renal = system: SN12C renal
UACC-257 melanoma = system: UACC-257 melanoma
TK-10 renal = system: TK-10 renal
SF-268 CNS = system: SF-268 CNS
PC-3 prostate = system: PC-3 prostate
MCF7 breast = system: MCF7 breast
HCT-116 colon = system: HCT-116 colon
BT-549 breast = system: BT-549 breast
KM12 colon = system: KM12 colon
786-0 renal = system: 786-0 renal
SK-MEL-28 melanoma = system: SK-MEL-28 melanoma
SF-539 CNS = system: SF-539 CNS
ACHN renal = system: ACHN renal
A549 NSCLC = system: A549 NSCLC
HOP-62 NSCLC = system: HOP-62 NSCLC
SK-OV-3 ovarian = system: SK-OV-3 ovarian
MDA-N = system: MDA-N
SK-MEL-2 melanoma = system: SK-MEL-2 melanoma
MALME-3M melanoma = system: MALME-3M melanoma
SW-620 colon = system: SW-620 colon
K-562 leukemia = system: K-562 leukemia
HL-60(TB) leukemia = system: HL-60(TB) leukemia
UACC-62 melanoma = system: UACC-62 melanoma
U251 CNS = system: U251 CNS
RPMI-8226 leukemia = system: RPMI-8226 leukemia
HCC-2998 colon = system: HCC-2998 colon
M14 melanoma = system: M14 melanoma
NCI/ADR-RES ovarian = system: NCI/ADR-RES ovarian
IGROV1 ovarian = system: IGROV1 ovarian
OVCAR-4 ovarian = system: OVCAR-4 ovarian
MDA-MB-435 = system: MDA-MB-435
HCT-15 colon = system: HCT-15 colon
COLO 205 colon = system: COLO 205 colon
NCI-H522 lung = system: NCI-H522 lung
HT29 colon = system: HT29 colon
NCI-H226 lung = system: NCI-H226 lung
CCRF-CEM leukemia = system: CCRF-CEM leukemia
HOP-92 NSCLC = system: HOP-92 NSCLC
CAKI-1 renal = system: CAKI-1 renal
OVCAR-8 ovarian = system: OVCAR-8 ovarian
SK-MEL-5 melanoma = system: SK-MEL-5 melanoma
HS 578T breast = system: HS 578T breast
RXF 393 renal = system: RXF 393 renal
LOX IMVI melanoma = system: LOX IMVI melanoma
EKVX NSCLC = system: EKVX NSCLC
NCI-H460 lung = system: NCI-H460 lung
UO-31 renal = system: UO-31 renal
T-47D breast = system: T-47D breast
NCI-H23 lung = system: NCI-H23 lung
SF-295 CNS = system: SF-295 CNS
DU-145 prostate = system: DU-145 prostate
OVCAR-3 ovarian = system: OVCAR-3 ovarian

Measured: TGI

CN(C)c1ccc(-c2c(C#N)c(O)n(NS(=O)(=O)c3ccccc3)c(=O)c2C#N)cc1
37 µM: SK-OV-3 ovarian
not listed: UO-31 renal | T-47D breast | NCI-H23 lung | SF-295 CNS | DU-145 prostate | OVCAR-3 ovarian
> 100 µM: all other assays above

O=c1c(C2=NCCC2)c(-c2ccc[nH]2)[nH]n1-c1ccccc1
not listed: MCF7 breast | HOP-62 NSCLC | HCC-2998 colon | IGROV1 ovarian | HS 578T breast
> 100 µM: all other assays above

O=c1oc2ccccc2c(O)c1/C=N/C(=S)NCc1ccccc1
63.7 µM: CAKI-1 renal
51.8 µM: TK-10 renal
41.5 µM: BT-549 breast
not listed: A498 renal | SF-268 CNS | MALME-3M melanoma | K-562 leukemia | UACC-62 melanoma | RPMI-8226 leukemia | NCI-H522 lung | CCRF-CEM leukemia | HS 578T breast | RXF 393 renal
> 100 µM: all other assays above

COc1cc(CNC2=NCCC2)cc(OC)c1OC
not listed: A498 renal | MDA-MB-231 breast | KM12 colon | SK-MEL-2 melanoma | RPMI-8226 leukemia | MDA-MB-435 | HS 578T breast | LOX IMVI melanoma | T-47D breast
> 100 µM: all other assays above
